For one data set, the target named is CDK6-CyclinD1 (Homo sapiens, UniProt Q00534). The data set can be described thus: CDK6 TR-FRET kinase assay. The settings on record: ATP 250 µM; read-out: IC50 CDK6 enzymatic activity. It counts as biochemical. As to the method:
For CDK6 inhibition, a Time-resolved fluorescence energy transfer (TR-FRET) kinase assay was performed according to the manufacturer’s instructions. Briefly, narazaciclib at various concentrations was pre-incubated with CDK6-CyclinD1 in kinase buffer at 25 °C for 1 h and then incubated with 12.5 nM Ulight-4E-BP1 peptide and 250 µM ATP at 25 °C for 2 h. The reaction was stopped by incubating with EDTA-containing stop buffer at 25 °C for 5 min. Subsequently, the mixture was incubated with detection buffer at 25 °C for 1 h. Finally, the signal was read on a Nivo Reader in TR-FRET mode (excitation at 320 nm and emission at 665 nm and 615 nm). The signal of the blank control was subtracted from the maximum signal (DMSO without compound) as well as from the value of narazaciclib at each concentration. This corrected emission ratio (ER) was used to calculate the percentage of enzyme activity recovery: enzyme activity recovery (%) = [(narazaciclib ER – blank control ER)[…]] × 100. The results were fitted to a dose–response curve by a 4-parameter log-logistic model: Inhibition%=Bottom+Top-Bottom/1+10^logEC50-x∗HillSlope
(In general: TR-FRET usually uses a lanthanide donor and a delayed reading to cut background.)

Another data set deals with AM7407 AML-PDX. The data set can be described thus: AM7407 systemic AML-PDX model. Type of data set: in vivo, NOD/scid mice. The settings on record: AM7407, 100 mg/kg orally every day. Here is the method: For systemic AML-PDX models, the model establishment and narazaciclib pharmacology experiment were performed essentially as described previously. Briefly, 2 × 10^6 AM7407 cells, or 2 × 10^6 AM7577 cells, or 2 × 10^6 AM5512 cells, or 1.65 × 10^6 AM8096 cells were inoculated intravenously into 4- to 5-week-old female NOD/scid mice for AML development. Engraftment was confirmed by the presence of circulating human CD45+ cells (anti-human CD45 antibody, Cat. 304038, Biolegend) in peripheral blood. Mice with successful engraftment of AML-PDX were randomized into different treatment groups (N = 6) and received their designated treatments. Narazaciclib was administrated orally or intraperitoneally at 10 mg/kg, or 30 mg/kg, or 100 mg/kg every day throughout the study, while Cytarabine was administrated intraperitoneally at 3 mg/kg every day. Following the initiation of designated treatments, leukemic burden was monitored by flow cytometry with anti-human CD45 antibody on the peripheral blood every week as well as on the peripheral blood, bone marrow cells and splenocytes of mice at sacrifice. Mice were sacrifice once the followings are observed: body weight loss over 20%, reduced motility and activity, labored breathing, ruffled coat, hunched back and severe dehydration.

The subject of another data set is Ba/F3-FLT3-N701K. The data set can be described thus: Ba/F3-FLT3-N701K proliferation assay. It counts as cell-based, mouse. Here is the method:
(§1) The recombinant Ba/F3 cell lines overexpressing human CSF1R, or human RBM6-CSF1R, or human ETV6-CSF1R were generated using a retrovirus vector (Kyinno Co., Ltd. Beijing). The recombinant Ba/F3 lines overexpressing human Kras G12C orEGFR-L718Q mutants, and different mutant variants of FLT3 were also similarly created as well. A standard proliferation assay via CTG readout was performed according to the vendor’s instructions (KYinno Biotechnology Co., Ltd. Beijing).

Data set [1] in a line: Single-dose oral pharmacokinetics in non-tumor bearing mice. It counts as in vivo. The note with it: female, NOD/scid; for CL/F: read-out: CL_F (converted). Here is the method: In order to understand the effective anti-AML exposure of narazaciclib in mice, we conducted a preliminary pharmacokinetic (PK) analysis of a single-dose oral administration of narazaciclib, at the same dose levels as in anti-AML pharmacology study above, in non-tumor bearing mice. Following a single oral administration of narazaciclib at either 30 mg/kg or 100 mg/kg in mice, plasma samples were collected at various timepoints. The plasma concentrations of narazaciclib were analyzed by LC–MS. […] In addition, narazaciclib undergoes relatively fast elimination from plasma with a T1/2 of 2.77 h for narazaciclib at 100 mg/kg or 1.92 h at 30 mg/kg.
Noncompartmental analyses (NCA) were performed using WinNonlinTM Phoenix, version XXX software (Pharsight, Cary, NC) to estimate the PK parameters including T1/2, elimination half-life; Tmax, Time to peak drug concentration; Cmax, maximum concentration; AUC0-∞, area under the plasma concentration–time curve from zero to infinity; AUC0-t, area under the plasma concentration–time curve from zero to the time of the last quantifiable time-point; CL_F, total body clearance; Vz-F, total volume of distribution. Following a single oral administration of narazaciclib at either 100 mg/kg or 30 mg/kg in female NOD/scid mice (N = 3), plasma samples were collected from 3 mice at each timepoint (pre-dose, 1h, 2h, 4h, 8h, 12h and24hpost administration) and analyzed by LC–MS.

For the next data set, the system named is Ba/F3-FLT3-ITD (F691L). As to the kind of experiment: Ba/F3-FLT3-ITD (F691L) proliferation assay. Type of data set: cell-based, mouse. As to the method: as §1
The next data set has as its target FLT3 (Homo sapiens, UniProt P36888). The data set can be described thus: FLT3 kinase inhibition assay (ADP-Glo). The note with it: ATP 10 μM; read-out: IC50 FLT3 enzymatic activity. Type of data set: biochemical. Here is the method:
Different assays were used to measure the inhibitory potencies of narazaciclib on FLT3, CSF1R and CDK6. For FLT3 inhibition, the enzyme, substrate (final concentration at 15 μg/μL), ATP (final concentration at 10 μM) and inhibitors were diluted and mixed in kinase buffer (40 mM Tris, pH 7.5; 20 mM MgCl2; 0.1 mg/ml BSA; 50 μM DTT). The mixtures were incubated at 25 °C for 120 min. Then, ADP‐Glo™ Reagent (Promega) was added to the mix and incubated at 25 °C for 40 min followed by the addition of kinase detection reagent and another 30 min at 25 °C. Luminescence was recorded with an integration time of 0.5 s.

[2] abbreviates: 30 mg/kg single oral, mouse plasma.
Setting [3] is: 100 mg/kg single oral, mouse plasma.

Where “and” joins values, the source holds several entries; their conditions need not be identical. Identical values can stand only once. Like-named read-outs stand apart in the source and are kept apart here.

Sequence of FLT3 (P36888 27-993): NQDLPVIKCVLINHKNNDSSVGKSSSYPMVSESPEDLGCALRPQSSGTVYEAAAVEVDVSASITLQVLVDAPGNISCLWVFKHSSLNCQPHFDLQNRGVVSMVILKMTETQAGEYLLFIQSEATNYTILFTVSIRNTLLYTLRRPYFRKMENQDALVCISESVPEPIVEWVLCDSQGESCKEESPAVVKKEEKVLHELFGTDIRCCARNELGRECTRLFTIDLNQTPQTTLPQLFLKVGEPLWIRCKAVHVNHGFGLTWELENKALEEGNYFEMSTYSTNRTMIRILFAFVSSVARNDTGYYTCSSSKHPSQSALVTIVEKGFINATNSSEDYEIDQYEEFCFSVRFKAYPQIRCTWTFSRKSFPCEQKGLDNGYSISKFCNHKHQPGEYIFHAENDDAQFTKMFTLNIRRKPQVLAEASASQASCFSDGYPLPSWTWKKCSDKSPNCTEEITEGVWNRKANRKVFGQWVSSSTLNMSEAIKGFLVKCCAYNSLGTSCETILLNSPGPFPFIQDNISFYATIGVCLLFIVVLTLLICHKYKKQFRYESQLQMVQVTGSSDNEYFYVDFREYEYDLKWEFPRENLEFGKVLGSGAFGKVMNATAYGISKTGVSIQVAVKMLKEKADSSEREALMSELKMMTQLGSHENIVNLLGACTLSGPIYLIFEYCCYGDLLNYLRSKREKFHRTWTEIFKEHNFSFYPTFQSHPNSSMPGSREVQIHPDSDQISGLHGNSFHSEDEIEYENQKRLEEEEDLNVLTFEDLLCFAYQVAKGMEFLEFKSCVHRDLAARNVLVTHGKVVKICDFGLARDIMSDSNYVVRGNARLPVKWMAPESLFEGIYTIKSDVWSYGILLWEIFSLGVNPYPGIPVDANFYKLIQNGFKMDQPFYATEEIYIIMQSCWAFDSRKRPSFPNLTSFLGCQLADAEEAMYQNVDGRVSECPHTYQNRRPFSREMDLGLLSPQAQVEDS
Sequence of CDK6-CyclinD1 (Q00534 whole entry): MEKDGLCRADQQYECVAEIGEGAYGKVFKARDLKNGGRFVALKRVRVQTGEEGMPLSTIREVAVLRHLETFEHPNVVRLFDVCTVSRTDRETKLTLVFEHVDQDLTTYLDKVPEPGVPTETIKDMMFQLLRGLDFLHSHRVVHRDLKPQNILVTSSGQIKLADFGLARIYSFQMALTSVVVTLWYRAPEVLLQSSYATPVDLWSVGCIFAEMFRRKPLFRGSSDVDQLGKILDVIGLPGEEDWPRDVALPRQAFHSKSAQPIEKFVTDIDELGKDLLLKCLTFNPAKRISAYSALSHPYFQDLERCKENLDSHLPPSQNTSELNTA
Sequence of CDK6-CyclinD1 (P24385 whole entry partner): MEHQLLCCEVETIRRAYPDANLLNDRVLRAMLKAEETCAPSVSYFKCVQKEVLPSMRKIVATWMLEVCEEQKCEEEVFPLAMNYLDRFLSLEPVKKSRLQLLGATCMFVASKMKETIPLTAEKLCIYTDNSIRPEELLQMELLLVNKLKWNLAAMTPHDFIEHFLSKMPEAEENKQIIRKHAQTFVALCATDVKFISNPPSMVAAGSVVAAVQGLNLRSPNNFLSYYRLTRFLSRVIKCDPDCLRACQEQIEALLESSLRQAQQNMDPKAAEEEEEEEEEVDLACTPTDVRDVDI

With `CN1CCN(c2ccc(Nc3ncc4cc(C#N)c(=O)n(C5CCCC5)c4n3)cc2)CC1` [Narazaciclib, narazaciclib], the IC50 (commonly the concentration that inhibits the measured activity by half) on CDK6-CyclinD1 is 0.53 nM; in the data set on Ba/F3-FLT3-N701K (Mus musculus), 396 nM; in the data set with Ba/F3-FLT3-ITD (F691L) (Mus musculus) it was 162 nM; on FLT3, ~19.8 nM and 19.8 nM. Besides, the response of model result in the data set on AM7407 AML-PDX is given as “did not respond”. In addition, the figures for the “% of Ba/F3-FLT3 (IC50)” value with Ba/F3-FLT3-N701K and in the data set on Ba/F3-FLT3-ITD (F691L) were 131.40% and 53.85%, respectively. The AUC(0-inf) is below 8190 ng·h/mL in data set [1] (mouse, plasma, oral, corresponding to 100 mg/kg dose level, read-out: efficacious exposure for anti-AML in mice in terms of AUC0~∞); 1200 ng·h/mL in data set [1] (30 mg/kg single oral, mouse plasma, read-out: AUC0-∞); 8210 ng·h/mL in data set [1] (100 mg/kg single oral, mouse plasma, read-out: AUC0-∞). Moreover, the Cmax (usually the peak of the concentration-time curve) in data set [1] (mouse, plasma, oral, corresponding to 100 mg/kg dose level, read-out: efficacious exposure for anti-AML in mice in terms of Cmax) was below 1460 ng/mL; in data set [1] (30 mg/kg single oral, mouse plasma, read-out: Cmax), 469 ng/mL; in data set [1] (100 mg/kg single oral, mouse plasma, read-out: Cmax) it was 1460 ng/mL. For the same compound, the AUC(0-t) (usually the area under the concentration-time curve up to a stated or last time point) in data set [1] (setting [2]) is 1040 ng·h/mL; in data set [1] (setting [3]) it was 8190 ng·h/mL. Further, the Tmax (as a rule, the time from dosing to the highest level) in data set [1] (setting [2]) turned out to be 1 h; in data set [1] (setting [3]), 2 h. Further, the half-life (as a rule, how long it takes for the measured level to halve) was 1.92 h in data set [1] (setting [2]) and 2.77 h in data set [1] (setting [3]). The values for the CL/F in data set [1] (setting [2]) and in data set [1] (setting [3]) were 415 mL/min/kg and 203 mL/min/kg, respectively.

Values taken from publication PMC11031590, “Narazaciclib, a novel multi-kinase inhibitor with potent activity against CSF1R, FLT3 and CDK6, shows strong anti-AML activity in defined preclinical models” (Scientific Reports, 2024).
